Activity calls are given as the source filed them. The rule behind the calls is not given here.
Assays:
[1] = Binding affinity to adenosine monophosphate in phosphate buffer by ARS competition assay at pH 7.4
[2] = Dissociation constant, pKa of the compound in aqueous solution by [11]B-NMR analysis; format: physicochemical
[3] = Dissociation constant, pKa of the compound in aqueous solution by spectrophotometry; format: physicochemical

Row | Activity [1] | pKa [2] | pKa [3] | Structure (SMILES)
1 | Active | 7.2 | 7.34 | OB1OCc2ccccc21 [BENZOXABOROLE]
2 | – | 8.4 | 8.4 | OB1OCCc2ccccc21 [BENZOXABORIN]
3 | – | – | 8.32 | CC1(C)OB(O)c2ccccc21
4 | Active | – | – | OB1OCc2cc(C(F)(F)F)ccc21

From ChEMBL document CHEMBL2034915, “Ring Structure and Aromatic Substituent Effects on the pK a of the Benzoxaborole Pharmacophore” (ACS Med Chem Lett, 2012)
